Results reported in patent US20250333745A1, “METHODS AND COMPOSITIONS FOR TREATMENT OF POLYCYSTIC KIDNEY DISEASE” (Regulus Therapeutics Inc., priority 2016, published 2025).
Blank lines part the entries; values can stand above or below the compound they belong to.

Tests used:
[1] = In vitro metabolic stability in mouse liver lysate; type: in vitro ADME; settings: 24-hour incubation of RG4326
Protocol: Metabolic stability was evaluated by incubating each anti-miR-17 compound in a mouse liver lysate. After 24 hours, the percentage of intact compound remaining is calculated. Compounds that are not stable following a 24-hour incubation are potentially not stable in vivo.
(§1) Due to their reduced capacity for serum protein binding, which is a property that drives oligonucleotide distribution in the body, short oligonucleotides are not necessarily expected to have pharmacokinetic properties that make them suitable for use as drugs. RG4326 was incubated in mouse, monkey or human liver homogenate. The identity and concentration of RG4326 and metabolites was determined after a 24-hour incubation. RG4326 and metabolites were extracted using liquid-liquid extraction (LLE) and/or solid-phase extraction (SPE), which were then analyzed for identity and concentration using ion-pairing-reversed-phase high performance liquid chromatography coupled with time-of-flight mass spectrometry (IP—RP-HPLC-TOF).

[2] = In vitro metabolic stability in monkey liver lysate; type: in vitro ADME; settings: 24-hour incubation of RG4326
Protocol: as §1

[3] = In vitro metabolic stability in human liver lysate; type: in vitro ADME; settings: 24-hour incubation of RG4326
Protocol: as §1

Pcy mice = experiment: Efficacy in the Pcy model of PKD; type: in vivo, mouse
Source text: Two experimental models of PKD were used to evaluate efficacy. Pkd2-KO mice spontaneously develop polycystic kidney disease, and were used as a model of ADPKD. See Patel et al., PNAS, 2013; 110 (26): 10765-10770. Pcy mice bearing a mutation in Nphp3 spontaneously develop polycystic kidney disease, with a slower progression of disease than that observed in the Pkd2-KO mice. The Pcy model is used as a model of nephronophthisis. See Happe and Peters, Nat. Rev. Nephrol., 2014; 10:587-601.
Cyst index is a histological measurement of cystic area relative to total kidney area. For this analysis, one kidney was perfused with cold PBS and 4% (wt/vol) paraformaldehyde and then harvested. Kidneys were fixed with 4% paraformaldehyde for 2 hours and then, embedded in paraffin for sectioning. Sagittal sections of kidneys were stained with hematoxylin and eosin (H&E). All image processing steps were automated and took place in freely available and open source software: An R1 script which used functions from the EBImage Bioconductor package2 and the ImageMagick3 suite of image processing tools. Kidney H&E images in Aperio SVS format were converted to TIFF images, and the first frame was retained for image analysis. First, the total kidney section area was calculated using image segmentation. Image segmentation was similarly used to find all internal structures including kidney cyst. A filter was applied to remove all objects less than a mean radius of three pixels. The cystic index is the image area associated with cysts divided by the total kidney areas. Cystic index was separately calculated for longitudinal and transverse kidney sections for each individual animal. Combined cystic index of individual animals were compared for each treatment groups.
RG4326 was tested in the Pcy mouse model. Wild-type mice were used as control group. From four weeks of age, Pcy mice were treated once per week via subcutaneous injection with RG4326 at a dose of 25 mg/kg, tool anti-miR-17 at a dose of 25 mg/kg, control oligonucleotide RG5124 at a dose of 25 mg/kg, or PBS. Each treatment group contained 15 male mice. Three treatments were administered on […] days of age, and weekly thereafter at 6, 7, 8, 9, 10, 11, 12, 13, and 14 weeks of age. Also tested was tolvaptan, a vasopressin V2-receptor antagonist (VRA) that is prescribed to some patients with polycystic kidney disease. Mice were sacrificed at 15 weeks of age. Body weight was recorded. One kidney was extracted and weighed and the other processed for histological analysis to calculate cyst index as described for the study in the Pkhd1/cre; Pkd2^F/F. Blood urea nitrogen (BUN) level and serum creatinine level were measured. Statistical significance was calculated by one-way ANOVA with Dunnett's multiple correction.

miR-17 [4] = experiment: microRNA polysome shift assay (miPSA), kidney target engagement; type: in vivo, mouse; set-up: miPSA Score Wild Type Mice / miPSA Score PKD Mice / miPSA displacement score (mean): scale not given here; settings: kidney, seven days; for miPSA Score PKD Mice: JCK mice, single dose 30 mg/kg; for miPSA Score Wild Type Mice: single dose 3 mg/kg
Protocol: (§2) In vivo potency was evaluated using the microRNA polysome shift assay (miPSA). This assay was used to determine the extent to which compounds directly engage the miR-17 target in the kidney in normal and PKD mice. The miPSA relies on the principle that active miRNAs bind to their mRNA targets in translationally active high molecular weight (HMW) polysomes, whereas the inhibited miRNAs reside in the low MW (LMW) polysomes. Treatment with anti-miR results in a shift of the microRNA from HMW polysomes to LMW polysomes. Thus, the miPSA provides a direct measurement of microRNA target engagement by a complementary anti-miR (Androsavich et al., Nucleic Acids Research, 2015, 44: e13).
(§3) The miPSA was used to assess the potency of each compound, measured by the displacement score, in wild type and JCK mice. Tissue accumulation of anti-miR-17 compound was measured by extraction of compound using liquid-liquid extraction (LLE) and/or solid-phase extraction (SPE), followed by analysis of the identity and concentration of compound using ion-pairing-reversed-phase high performance liquid chromatography coupled with time-of-flight mass spectrometry (IP—RP-HPLC-TOF).
(§4) Wild type mice were administered a single dose of 3 mg/kg for the miPSA analysis, and a single dose of 30 mg/kg for the tissue accumulation analysis. JCK mice were administered a single dose of 30 mg/kg for both the miPSA and tissue accumulation analyses. Kidney tissue was collected seven days following the administration of anti-miR-17 compound. […] A higher kidney-to-liver ratio is generally preferred for a disease where the primary site of action is the kidney.
as §2, with “The” for “In vivo potency was evaluated using the”, “(miPSA),” for “(miPSA). This assay”, “identify” for “determine the extent to which”, “compounds that” for “compounds”, “engage” for “engage the”, “miR-17” for “miR-17 target”
For this experiment, the PKD model selected was the JCK model, a mouse model of slowly progressing renal cystic disease associated with the same gene that causes human nephronophthisis type 9. Renal cysts in this mouse develop in multiple regions of the nephron.
C57BL6 mice were treated with a single, subcutaneous dose of 0.3, 3, and 30 mg/kg of RG4326 or tool anti-miR-17 (described in Example 1). JCK mice were treated with a single, subcutaneous dose of 3, 30, and 100 mg/kg of RG4326 or tool anti-miR-17. PBS treatment was used as an additional control. At seven days post-treatment, mice were sacrificed, and kidney tissue was isolated for the miPSA. […] The displacement scores following treatment with RG4326 were greater than the displacement scores following treatment with the tool anti-miR-17 compound. The data for wild-type mice and JCK mice are also shown in FIG. 3A and FIG. 3B, respectively.
Pharmacokinetic behavior was assessed by administering a single subcutaneous 30 mg/kg dose of RG4326 or tool anti-miR-17 compound to wild-type mice. At one hour, four hours, eight hours, one day, seven days, 14 days, 28 days and 56 days following the single injection, mice were sacrificed and the mean concentration of anti-miR compound in kidney and liver tissue was measured (ug/g) as described above. The area-under-curve (AUC) was calculated for kidney and liver tissue using the formula ug*h/g, where ug is the amount of oligonucleotide in the tissue, h is the timepoint of tissue collection in hours, and g is the weight of the tissue. The ratio of kidney AUC to liver AUC was determined. Kidney tissue was also processed to the miPSA, to determine target engagement for each compound in this study. […]

[5] = Tissue accumulation in kidney and liver (kidney-to-liver ratio); type: in vivo, mouse; settings: single dose 30 mg/kg, seven days; for Kidney-to-Liver Ratio PKD Mice: JCK mice
Protocol: Pharmacokinetic properties and tissue distribution of select compounds were assessed in wild type C57BL6 mice and JCK mice (an experimental model of PKD). Compound was administered to wild type mouse at a dose of 0.3, 3, or 30 mg/kg, or to JCK mice at a dose of 3, 30, or 100 mg/kg. After seven days, mice were sacrificed. Kidney and liver tissues were collected. Concentration of anti-miR-17 compound was measured in liver and kidney. Compounds that accumulate to a greater level in kidney, relative to liver (i.e., have a higher kidney-to-liver ratio) were preferred.
as §3, §4

miR-17 [6] = experiment: miR-17 luciferase reporter assay in HeLa cells; type: cell-based; settings: mean
Protocol: In vitro potency was evaluated using a luciferase reporter assay. A luciferase reporter plasmid for miR-17, with […] in the 3′-UTR of the luciferase gene. Compounds of longer lengths were selected if their maximum inhibition was greater than that of the tool anti-miR-17 compound. As shorter compounds, such as 9-mers, are typically not maximally active in the same assay conditions used for longer compounds, shorter compounds were selected based on maximum inhibition relative to appropriate control compounds. In this way, compounds that are diverse in both length and chemical composition were included in further testing.
One assay employed was the luciferase assay. […] Accordingly, the luciferase assay transfection conditions were optimized for short anti-miR-17 compounds, so that the inhibitory activity of the compounds could be measured.
The luciferase reporter plasmid for miR-17 contained a fully complementary miR-17 binding site in the 3′-UTR of the luciferase gene. HeLa cells were transfected with the microRNA mimic and its cognate luciferase reporter, followed by transfection with anti-miR-17 at doses of […], 3, 10, 30, 100, and 300 nM. At the end of the 24-hour transfection period, luciferase activity was measured. As shown in Table 2-1, RG4047, while not as potent as RG4326, inhibited miR-17 activity in a dose dependent manner. SD indicates standard deviation.
Additional in vitro assays were conducted to further explore the potency of RG4326. A luciferase reporter assay was used to test the ability of RG4326 to inhibit the miR-17 family members miR-17, miR-20a, miR-93, and miR-106b. A luciferase reporter plasmid for each of miR-20a, miR-93, and miR-106b was constructed, with a fully complementary microRNA binding site in the 3′-UTR of the luciferase gene. HeLa cells were transfected with the microRNA mimic and its cognate luciferase reporter, followed by transfection with anti-miR-17 at a dose of 100 nm. […] As RG4326 is 100% complementary to the other miR-17 family members not tested, miR-20b and […], it is expected to inhibit these microRNAs as well.

[7] = Safety evaluation of RG4047 (pro-inflammatory signal in kidney and liver)
Protocol: In in vitro assays, the potential for toxicity was assessed using a biochemical fluorescent binding assay (FBA) and a liver or kidney slice assay. The FBA is performed by incubating a fluorescent dye with each compound, and immediately measuring fluorescence. Highly fluorescent compounds have the potential to produce toxicity in vivo. The liver or kidney slice assay is performed by incubating a slice of tissue from a core liver sample isolated from rat. Following a 24-hour incubation, RNA is extracted from the tissue slice, and the expression levels of 18 pro-inflammatory genes are measured. An induction in pro-inflammatory gene expression indicates a potential for pro-inflammatory effects in vivo.
Additional in vivo toxicology assessments were performed by administering to normal mice (Sv129 mice) a single subcutaneous injection of 300 mg/kg of anti-miR-17 compound. After four days, mice were sacrificed, blood was collected for serum chemistry analysis, liver and spleen were weighed, and RNA was isolated from kidney and liver tissues. The expression level of a pro-inflammatory gene, interferon-induced protein with tetratricopeptide repeats (IFIT), was measured.
RG4047 was evaluated for potency in vivo, safety, and distribution to kidney and liver.

[8] = 25 mg/kg s.c. for oligonucleotides, sacrificed at 15 weeks of age

Compound: 5′-ASGSCMAF-3′ [Metabolite 2]
Ex Vivo Liver Lysate (% Analyte), Mouse [1]: 0.6%
Ex Vivo Liver Lysate (% Analyte), Monkey [2]: 2.3%
Ex Vivo Liver Lysate (% Analyte), Human [3]: 0.7%

Compound: 5′-ASGSCMAFCF-3′ [Metabolite 1]
Ex Vivo Liver Lysate (% Analyte), Mouse [1]: 0.3%
Ex Vivo Liver Lysate (% Analyte), Monkey [2]: 1.8%
Ex Vivo Liver Lysate (% Analyte), Human [3]: 0.6%

Compound: Cc1ccccc1C(=O)Nc1ccc(C(=O)N2CCCC(O)c3cc(Cl)ccc32)c(C)c1 (stereo not drawn) [Tolvaptan, tolvaptan]
efficacy on KW/BW ratio, BUN or cyst index (in words) (Pcy mice): not efficacious
BUN (mean) (Pcy mice; [8]): 24.4
Cystic Index (mean) (Pcy mice; [8]): 0.26
KW/BW Ratio (mean) (Pcy mice; [8]): 20.1

Compound: ASGSCSASCSUSUSUSGS [RG4047]
Luciferase Fold Derepression (miR-17 [6]; 0.001 nM anti-miR-17, 24-hour transfection): 1
Luciferase Fold Derepression (miR-17 [6]; 3 nM anti-miR-17, 24-hour transfection): 1.6
Luciferase Fold Derepression (miR-17 [6]; 10 nM anti-miR-17, 24-hour transfection): 2.2
Luciferase Fold Derepression (miR-17 [6]; 30 nM anti-miR-17, 24-hour transfection): 3.5
Luciferase Fold Derepression (miR-17 [6]; 100 nM anti-miR-17, 24-hour transfection): 8.2
Luciferase Fold Derepression (miR-17 [6]; 300 nM anti-miR-17, 24-hour transfection): 7.5
miPSA Score PKD Mice (miR-17 [4]): 1.80
miPSA Score Wild Type Mice (miR-17 [4]): 1.76
Kidney-to-Liver Ratio PKD Mice [5]: 2.1
Kidney-to-Liver Ratio Wild Type Mice [5]: 4.4
pro-inflammatory signal (in words) [7]: slight pro-inflammatory signal in both kidney and liver

Now from value to compound, other results behind:

Kidney-to-Liver Ratio PKD Mice [5]: 9.4
Kidney-to-Liver Ratio Wild Type Mice [5]: 24.9
Compound: ASGMCFAFCFUFUFUMGS [Compound 4327]
miPSA Score PKD Mice (miR-17 [4]): 1.53
miPSA Score Wild Type Mice (miR-17 [4]): 2.85

Kidney-to-Liver Ratio PKD Mice [5]: 5.7
Kidney-to-Liver Ratio Wild Type Mice [5]: 12.4
Compound: ASGSCMAMCMUMUMUSGS [Compound 4325]
miPSA Score PKD Mice (miR-17 [4]): 2.00
miPSA Score Wild Type Mice (miR-17 [4]): 1.82

Kidney-to-Liver Ratio PKD Mice [5]: 3.9
Kidney-to-Liver Ratio Wild Type Mice [5]: 5.0
Compound: ASGSCMASCMUSUMUSGS [Compound 4324]
miPSA Score PKD Mice (miR-17 [4]): 2.53
miPSA Score Wild Type Mice (miR-17 [4]): 2.81
